Assay results reported in US7795226B2, “Control of radiation injury” (Biotempt B.V., priority 2006, dated 2010).
Values joined by “and” are separate entries in the source; they are usually repeats but may differ in a detail not shown here. Equal values may be shown once.

Columns and labels:
Type in all cases: in vivo
[1] = test system: LPS-induced septic shock in mice; test: comparative trial MTR and AQGV from two sources, LPS sickness scores; design: key to Sickness Score, individual mouse: 0: No abnormalities.; 1: Percolated fur, but no detectable behavior differences compared to normal mice.; 2: Percolated fur, huddle reflex, responds to stimuli (such as tap on cage), just as active during handling as healthy mouse.; 3: Slower response to tap on cage, passive or docile when handled, but still curious when alone in a new setting.; 4: Lack of curiosity, little or no response to stimuli, quite immobile.; 5: Labored breathing, inability or slow to self-right after being rolled onto back (moribund, sacrificed).; Dead; conditions: LPS 10-11 mg/kg; for Survival %: group of six
From the text: Mice were scored for sickness severity using the following measurement scheme: • 0 No abnormalities. • 1 Percolated fur, but no detectable behavior differences compared to normal mice. • 2 Percolated fur, huddle reflex, responds to stimuli (such as tap on cage), just as active during handling as healthy mouse. • 3 Slower response to tap on cage, passive or docile when handled, but still curious when alone in a new setting. • 4 Lack of curiosity, little or no response to stimuli, quite immobile. • 5 Labored breathing, inability or slow to self-right after being rolled onto back (moribund, sacrificed). • D Dead.
A comparative trial was set up to compare peptide MTR and AQGV (SEQ ID NO:120), each obtained from two commercial sources. The comparative trial comprised six groups of six animals; two groups (1A and 1B) receiving placebo (PBS), one group ([…]), one group (3) receiving peptide MTR (source Ansynth), one group (4) receiving peptide AQGV (SEQ ID NO:120) (source Pepscan) and one group (5) receiving peptide AQGV (SEQ ID NO:120) (source Ansynth). Peptide/placebo in these groups was administered two hours after LPS. LPS (source) was used at 10 to 11 mg/kg. Sickness scores were done at 0, 2, 22, 26, 42, and 48 hours after LPS injection.
Comparative trial MTR and AQGV (SEO ID NO:120), each derived from two sources, all at 5 mg/kg.

[2] = test system: BALB/c mice exposed whole body to 10 Gy 137Cs-γ-irradiation; test: Whole body γ-irradiation (10 Gy), peptide 1.5 hours before irradiation; conditions: 10 mg/kg i.p. 1.5 hours before 10 Gy; for Watery eyes / Weight loss: affected/total; for Mortality: dead/total
Protocol: (§1) In the first experiment, 12-week-old female BALB/c mice were treated intraperitoneally with a single injection of either PBS (n=9) or with a peptide (LQGV (SEQ ID NO:117), VLPALP (SEQ ID NO:140), LPGCPRGVNPVVS (SEQ ID NO:114), MTRVLQGVLPALPQVVC (SEQ ID NO:113); n=8, 10 mg/kg). One and a half hours after the treatment, mice were exposed whole body to a single dose of 10 Gy ^137Cs-γ-irradiation. In the second experiment, 12-week-old female BALB/c mice were first exposed whole body to a single dose of 10 Gy ^137Cs-γ-irradiation and then 1.5 hours after the irradiation treated intraperitoneally with a single injection of either PBS (n=9) or with a peptide (n=8 or 9, 10 mg/kg).

[3] = test system: BALB/c mice exposed whole body to 10 Gy 137Cs-γ-irradiation; test: Whole body γ-irradiation (10 Gy), peptide 1.5 hours after irradiation; conditions: 10 mg/kg i.p. 1.5 hours after 10 Gy; for Watery eyes / Weight loss: affected/total; for Mortality: dead/total
Protocol: as §1

[4] = 0 hours (LPS treatment), peptide from Ansynth (#Ansynth 12, #Ansynth 46) 5 mg/kg
[5] = 0 hours (LPS treatment), peptide from Diosynth BV (#970, #971) 5 mg/kg
[6] = 2 hours (compound treatment), peptide from Ansynth (#Ansynth 12, #Ansynth 46) 5 mg/kg
[7] = 2 hours (compound treatment), peptide from Diosynth BV (#970, #971) 5 mg/kg
[8] = 22 hours, peptide from Ansynth (#Ansynth 12, #Ansynth 46) 5 mg/kg
[9] = 22 hours, peptide from Diosynth BV (#970, #971) 5 mg/kg
[10] = 26 hours, peptide from Ansynth (#Ansynth 12, #Ansynth 46) 5 mg/kg
[11] = 26 hours, peptide from Diosynth BV (#970, #971) 5 mg/kg
[12] = 42 hours, peptide from Ansynth (#Ansynth 12, #Ansynth 46) 5 mg/kg
[13] = 42 hours, peptide from Diosynth BV (#970, #971) 5 mg/kg
[14] = 48 hours, peptide from Ansynth (#Ansynth 12, #Ansynth 46) 5 mg/kg
[15] = 48 hours, peptide from Diosynth BV (#970, #971) 5 mg/kg
[16] = peptide from Ansynth (#Ansynth 12, #Ansynth 46) 5 mg/kg
[17] = peptide from Diosynth BV (#970, #971) 5 mg/kg

Substance | Sickness Score, individual mouse [1, 4] | Sickness Score, individual mouse [1, 5] | Sickness Score, individual mouse [1, 6] | Sickness Score, individual mouse [1, 7] | Sickness Score, individual mouse [1, 8] | Sickness Score, individual mouse [1, 9] | Sickness Score, individual mouse [1, 10] | Sickness Score, individual mouse [1, 11] | Sickness Score, individual mouse [1, 12] | Sickness Score, individual mouse [1, 13] | Sickness Score, individual mouse [1, 14] | Sickness Score, individual mouse [1, 15] | Survival % [1, 16] | Survival % [1, 17] | Watery eyes ([2]; day 0 after irradiation) | Weight loss ([2]; day 0 after irradiation) | Mortality ([2]; day 0 after irradiation) | Mortality ([2]; day 3 after irradiation) | Watery eyes ([2]; day 4 after irradiation) | Weight loss ([2]; day 4 after irradiation) | further results
AQGV | 0 | 0 | 2 | 2 | 3 (2×) and 2 (3×) and 4 | 2 (4×) and 3 and 4 | 3 (2×) and 2 (3×) and 4 | 2 (3×) and 3 (2×) and 5 | 2 and 3 and 1 (3×) and 5 | 2 (5×) and dead | 1 (5×) and dead | 2 (3×) and 1 (2×) | 83% | 83% |  |  |  |  |  |  | 
LQGV |  |  |  |  |  |  |  |  |  |  |  |  |  |  | 0/8 | 0/8 | 0/8 | 0/8 | 0/8 | 8/8 | Mortality ([2]; day 4 after irradiation): 0/8; Mortality ([2]; day 5 after irradiation): 0/8; Mortality ([2]; day 6 after irradiation): 7/8; Mortality ([2]; day 7 after irradiation): 8/8; Watery eyes ([3]; day 0 after irradiation): 0/9; Weight loss ([3]; day 0 after irradiation): 0/9; Mortality ([3]; day 0 after irradiation): 0/9; Mortality ([3]; day 3 after irradiation): 0/9; Watery eyes ([3]; day 4 after irradiation): 3/9; Weight loss ([3]; day 4 after irradiation): 9/9; Mortality ([3]; day 4 after irradiation): 0/9; Mortality ([3]; day 5 after irradiation): 1/9; Mortality ([3]; day 6 after irradiation): 6/9; Mortality ([3]; day 7 after irradiation): 9/9
MTR | 0 | 0 | 2 | 2 | 2 (4×) and 4 and 3 | dead and 3 and 2 (3×) and 4 | 1 and 2 (2×) and 5 and 4 and 3 | 3 and 2 (3×) and 5 | 1 and 2 (2×) and dead and 4 and 5 | 5 and 2 (2×) and 4 and dead | 1 (2×) and dead (2×) and 2 | dead (2×) and 2 (2×) | 50% | 33% |  |  |  |  |  |  | 
VLPALP (hexamer peptide) |  |  |  |  |  |  |  |  |  |  |  |  |  |  | 0/8 | 0/8 | 0/8 | 0/8 | 0/8 | 8/8 | Mortality ([2]; day 4 after irradiation): 0/8; Mortality ([2]; day 5 after irradiation): 0/8; Mortality ([2]; day 6 after irradiation): 7/8; Mortality ([2]; day 7 after irradiation): 8/8; Watery eyes ([3]; day 0 after irradiation): 0/9; Weight loss ([3]; day 0 after irradiation): 0/9; Mortality ([3]; day 0 after irradiation): 0/9; Mortality ([3]; day 3 after irradiation): 0/9; Watery eyes ([3]; day 4 after irradiation): 0/9; Weight loss ([3]; day 4 after irradiation): 9/9; Mortality ([3]; day 4 after irradiation): 0/9; Mortality ([3]; day 5 after irradiation): 0/9; Mortality ([3]; day 6 after irradiation): 3/9; Mortality ([3]; day 7 after irradiation): 9/9
